Source: article PMC9694494, “Resveratrol/Hydrazone Hybrids: Synthesis and Chemopreventive Activity against Colorectal Cancer Cells” (Pharmaceutics, 2022)
Like-named read-outs stand apart in the source and are kept apart here.

Assays:
SW620 cells [1] = assay: Antiproliferative activity (SRB, 2-8 days), SW620; type: cell-based; conditions: Homo sapiens, read-out: Viability (%) ± SE; for viability at 3 µM: SW620, 3 µM; for viability at 6 µM: SW620, 6 µM; for viability at 12 µM: SW620, 12 µM; for viability at 24 µM: SW620, 24 µM; for viability at 48 µM: SW620, 48 µM
Experimental: (§1) The procedure for evaluating the antiproliferative activity was carried out using the same colorimetric test (SRB) described for cell viability, with minor modifications. Briefly, 2500 cells/well were seeded in 96-well tissue culture plates and incubated as in the previously described conditions for 0, 2, 4, 6, and 8 days. […] The culture medium was changed every 48 h. After each incubation time, cells were fixed, stained, and read as previously described for this technique.

SW620 cells [2] = assay: Cell death induction (Annexin-V/FITC and PI flow cytometry), SW620; type: cell-based, human; conditions: SW620, 48 h exposure
Experimental: Flow cytometric analysis using a double fluorescent staining with Annexin-V/FITC and propidium iodide (Roche Diagnostics) was used to evaluate phosphatidylserine exposure and membrane damage. Colon cancer cells (SW480 and SW620) were seeded at 2.5 × 10^5 in each 6-well plate and treated for 48 h. […] At the end of each treatment, cells were scraped and centrifuged. The pellet was resuspended in versene buffer with the fluorescent dyes and incubated for 20 min in darkness. Data were analyzed with FlowJo 7.6.2 (Ashland, OR, USA). Cells with double-positive staining for Annexin-V and PI were considered late apoptotic or dead cells, while the single staining with Annexin-V/FITC (Annexin-V/FITC positive) or propidium iodide (PI positive) was considered for early apoptotic or necrotic cells, respectively. Assays were performed twice.

SW480 cells [3] = assay: SRB cell viability (cytotoxicity), SW480; type: cell-based, human; conditions: for Selectivity Index SI1: CHO-K1/SW480 IC50 ratio; for Selectivity Index SI2: HaCaT/SW480 IC50 ratio; for IC50: Homo sapiens, SW480, SRB, read-out: IC50 ± SEM SW480
Experimental: (§2) Human colon cancer cell lines (SW480 and SW620), together with nonmalignant cells (CHO-K1 and HaCaT) were used to study the biological activity. Cells were purchased from the European Collection of Authenticated Cell Cultures (ECACC, UK). Dulbecco’s Modified Eagle Medium (DMEM) containing heat-inactivated (56 °C) horse serum (10%), non-essential amino acids (1%) and antibiotics (penicillin/streptomycin, 1%) (Gibco Invitrogen, Carlsbad, CA, USA) was used to maintain the cells, reducing the horse serum to 3%, and, adding insulin ([…]), transferrin ([…]) and selenium (5 ng/mL) (ITS-defined medium; Gibco, Invitrogen, Carlsbad, CA, USA) for all the experiments.
(§3) The colorimetric test with Sulforhodamine B (SRB) was used to evaluate cell viability. Cell density was adjusted to seed 20.000 cells/well in 96-well tissue culture plates. Cells were first incubated for 24 h and then treated with the synthesized hybrids, the lead compounds (PIH and resveratrol), and the reference drug (5-FU) (concentrations between 0.01 and 200 µM), using DMSO (below 1%) as vehicle control. The optimum conditions were 37 °C and 5% CO2. After the end of each treatment, cold trichloroacetic acid (MERCK, 50% v/v) was added and preserved for one hour at 4 °C, to fix the cells. Then, cell proteins were stained with 0.4% (w/v) SRB (Sigma-Aldrich, St. Louis, MO, USA), and subsequently washed with acetic acid (1%) to remove unbound SRB. After air-drying, protein-bound SRB was solubilized in 10 mM Tris-base before reading the absorbance at 492 nm in a microplate reader (Mindray MR-96A). All experiments were performed at least three times.

SW620 cells [4] = assay: Mitochondrial membrane potential (DiOC6/PI flow cytometry), SW620; type: cell-based, human; conditions: SW620, treated at IC50 value
Experimental: (§4) To evaluate changes in mitochondrial membrane permeability, the fluorescent dyes DiOC6 (3,3′-dihexyloxacarbocyanine iodide, Thermo Fisher Scientific, Waltham, MA, USA) and propidium iodide (PI) were used. Cell density was adjusted to seed 2.5 × 10^5 cells/well in 6-well tissue culture plates. […] Subsequently, cells were scraped with the same culture mean and stained with both fluorescent dyes, incubating at room temperature for 30 min in darkness. For each sample, 10,000 events were analyzed through flow cytometry with excitation at 488 nm and detection of the emission with the green (530/15 nm) and the red (610/20 nm) filters. The results informed about the cells with depolarized mitochondrial membranes.

SW480 cells [5] = assay: Mitochondrial membrane potential (DiOC6/PI flow cytometry), SW480; type: cell-based, human
Experimental: as §4

SW480 cells [6] = assay: Antiproliferative activity (SRB, 2-8 days), SW480; type: cell-based; conditions: Homo sapiens, read-out: Viability (%) ± SE; for viability at 3 µM: SW480, 3 µM; for viability at 6 µM: SW480, 6 µM; for viability at 12 µM: SW480, 12 µM; for viability at 24 µM: SW480, 24 µM; for viability at 48 µM: SW480, 48 µM
Experimental: as §1

HaCaT cells = assay: SRB cell viability (cytotoxicity), HaCaT; type: cell-based; conditions: Homo sapiens, HaCaT nonmalignant cells, read-out: IC50 ± SEM HACAT
Experimental: as §2, §3

SW620 cells [7] = assay: SRB cell viability (cytotoxicity), SW620; type: cell-based, human; conditions: for Selectivity Index SI3: CHO-K1/SW620 IC50 ratio; for IC50: Homo sapiens, SW-620, SRB, read-out: IC50 ± SEM SW620
Experimental: as §2, §3

CHO-K1 cells = assay: SRB cell viability (cytotoxicity), CHO-K1; type: cell-based; conditions: Cricetulus griseus, CHO-K1 nonmalignant cells, read-out: IC50 ± SEM CHO
Experimental: as §2, §3

[8] = SW-620, 48 h, 2 days after plating
[9] = SW-620, 96 h, 4 days after plating
[10] = SW-620, 144 h, 6 days after plating
[11] = SW-620, 192 h, 8 days after plating
[12] = SW480, treated at IC50 value, DiOC6/PI

O=C(N/N=C/c1c(O)cc(O)cc1/C=C/c1ccc(O)cc1)c1ccncc1 [compound 7, N′-((E)-2,4-dihydroxy-6-((E)-4-hydroxystyryl)benzylidene)isonicotinohydrazide]
viability at 3 µM (SW620 cells [1]; [8]): 89.3 ± 1.65% | viability at 6 µM (SW620 cells [1]; [8]): 88 ± 2.48% | viability at 12 µM (SW620 cells [1]; [8]): 67.82 ± 0.4% | viability at 24 µM (SW620 cells [1]; [8]): 45.21 ± 0.38% | viability at 48 µM (SW620 cells [1]; [8]): 41.5 ± 3.3% | viability at 3 µM (SW620 cells [1]; [9]): 87.29 ± 0.75% | viability at 6 µM (SW620 cells [1]; [9]): 72.4 ± 0.9% | viability at 12 µM (SW620 cells [1]; [9]): 33 ± 1.8% | viability at 24 µM (SW620 cells [1]; [9]): 27.8 ± 2.96% | viability at 48 µM (SW620 cells [1]; [9]): 6.31 ± 0.74% | viability at 3 µM (SW620 cells [1]; [10]): 59.2 ± 2.77% | viability at 6 µM (SW620 cells [1]; [10]): 43.4 ± 0.48% | viability at 12 µM (SW620 cells [1]; [10]): 17.8 ± 0.3% | viability at 24 µM (SW620 cells [1]; [10]): 8.13 ± 1.48% | viability at 48 µM (SW620 cells [1]; [10]): 0.26 ± 0.07% | viability at 3 µM (SW620 cells [1]; [11]): 46.55 ± 0.03% | viability at 6 µM (SW620 cells [1]; [11]): 38.53 ± 0.28% | viability at 12 µM (SW620 cells [1]; [11]): 5.53 ± 0.11% | viability at 24 µM (SW620 cells [1]; [11]): 3.93 ± 0.59% | viability at 48 µM (SW620 cells [1]; [11]): 0% | plasma membrane integrity (PI positive staining) (SW620 cells [2]): induced plasma membrane disintegration | Selectivity Index SI1 (SW480 cells [3]; 24 H): 0.80 | Selectivity Index SI2 (SW480 cells [3]; 24 H): 0.94 | Selectivity Index SI1 (SW480 cells [3]; 48 H): 2.14 | Selectivity Index SI2 (SW480 cells [3]; 48 H): 2.49 | IC50 (SW480 cells [3]; 24 H): 84.2 ± 10 µM | IC50 (SW480 cells [3]; 48 H): 19 ± 1.4 µM | selectivity (SI) (SW480 cells [3]; SW480 versus the nonmalignant cell lines, 48 h after treatment): > 1 | Q1: PI-positive cells with membrane damage (SW620 cells [4]): 2.19% | Q2: PI-positive cells with membrane damage (SW620 cells [4]): 1.54% | Q3: DiOC6 high, live cells with high membrane polarization (SW620 cells [4]): 89.3% | Q4: DiOC6 low, cells in latency that lose membrane polarization (SW620 cells [4]): 6.99% | effect on mitochondrial membrane potential (ΔΨm) (SW480 cells [5]; SW480, regarding the control, increase in DiOC6 low population): causing depolarization in the mitochondrial membrane | Q1: PI-positive cells with membrane damage (SW480 cells [5]; [12]): 1.24% | Q2: PI-positive cells with membrane damage (SW480 cells [5]; [12]): 0.052% | Q3: DiOC6 high, live cells with high membrane polarization (SW480 cells [5]; [12]): 67.3% | Q4: DiOC6 low, cells in latency that lose membrane polarization (SW480 cells [5]; [12]): 31.4% | viability at 3 µM (SW480 cells [6]; 48 h, 2 days after plating): 100% | viability at 6 µM (SW480 cells [6]; 48 h, 2 days after plating): 90.5 ± 1.38% | viability at 12 µM (SW480 cells [6]; 48 h, 2 days after plating): 59.1 ± 0.27% | viability at 24 µM (SW480 cells [6]; 48 h, 2 days after plating): 27.2 ± 0.5% | viability at 48 µM (SW480 cells [6]; 48 h, 2 days after plating): 19.6 ± 2.58% | viability at 3 µM (SW480 cells [6]; 96 h, 4 days after plating): 99.45 ± 0.55% | viability at 6 µM (SW480 cells [6]; 96 h, 4 days after plating): 78.5 ± 1.56% | viability at 12 µM (SW480 cells [6]; 96 h, 4 days after plating): 11.4 ± 0.35% | viability at 24 µM (SW480 cells [6]; 96 h, 4 days after plating): 0% | viability at 48 µM (SW480 cells [6]; 96 h, 4 days after plating): 0% | viability at 3 µM (SW480 cells [6]; 144 h, 6 days after plating): 96.87 ± 0.14% | viability at 6 µM (SW480 cells [6]; 144 h, 6 days after plating): 67.4 ± 1.82% | viability at 12 µM (SW480 cells [6]; 144 h, 6 days after plating): 5.49 ± 0.05% | viability at 24 µM (SW480 cells [6]; 144 h, 6 days after plating): 0% | viability at 48 µM (SW480 cells [6]; 144 h, 6 days after plating): 0% | viability at 3 µM (SW480 cells [6]; 192 h, 8 days after plating): 74.76 ± 0.02% | viability at 6 µM (SW480 cells [6]; 192 h, 8 days after plating): 48.5 ± 1.11% | viability at 12 µM (SW480 cells [6]; 192 h, 8 days after plating): 2.52 ± 0.22% | viability at 24 µM (SW480 cells [6]; 192 h, 8 days after plating): 0% | viability at 48 µM (SW480 cells [6]; 192 h, 8 days after plating): 0% | IC50 (HaCaT cells; 24 H): 79 ± 6.73 µM | IC50 (HaCaT cells; 48 H): 47.3 ± 2.5 µM | Selectivity Index SI3 (SW620 cells [7]; 24 H): 0.55 | Selectivity Index SI4 (SW620 cells [7]; 24 H, HaCaT/SW620 IC50 ratio): 0.64 | Selectivity Index SI3 (SW620 cells [7]; 48 H): 1.06 | IC50 (SW620 cells [7]; 24 H): 122 ± 10.8 µM | IC50 (SW620 cells [7]; 48 H): 38.4 ± 3.3 µM | selectivity (SI) (SW620 cells [7]; SW620 versus the nonmalignant cell lines, 48 h after treatment): > 1 | IC50 (CHO-K1 cells; 24 H): 67.2 ± 4.32 µM | IC50 (CHO-K1 cells; 48 H): 40.5 ± 2.4 µM
